target: human Plasma Kallikrein (KLKB1) (Homo sapiens (Human), UniProt P03952); assay: Inhibition of KLKB1 endpoint assay; type: biochemical; settings: fluorogenic substrate H-Pro-Phe-Arg-AMC, 1 hr at Room Temperature, read-out: IC50 measurements for the inhibition of human Plasma Kallikrein (KLKB1)
Procedure: The ability of compounds of Formula I to inhibit plasma kallikrein (KLKB1), Factor XIIa (FXIIa), Factor XIa (FXIa), Factor Xa (FXa), Factor IIa (alpha-thrombin; FIIa), plasmin, trypsin, tissue kallikrein 1 (KLK1), Factor VIIa (FVIIa), or FVIIa complexed with Tissue Factor, phospholipids and CaCl2 (FVIIa/TF/PL/CaCl2) was determined using the following biochemical assays in assay buffer (100 mM Tris, 150 mM NaCL, adjusted to a pH of 7.8 with HCl, and containing 0.1% (w/v) BSA and 0.05% (v/v) Tween20) in the presence of 1% (v/v) DMSO:
Subsequently, PPACK II (Calbiochem) was added as a stop solution to achieve a final concentration of 1 μM and fluorescence was measured using an Envision Reader (PerkinElmer) with the wavelength excitation setting of 355 nm and the wavelength emission setting of 460 nm.

human Plasma Kallikrein (KLKB1), sequence (P03952 391-638): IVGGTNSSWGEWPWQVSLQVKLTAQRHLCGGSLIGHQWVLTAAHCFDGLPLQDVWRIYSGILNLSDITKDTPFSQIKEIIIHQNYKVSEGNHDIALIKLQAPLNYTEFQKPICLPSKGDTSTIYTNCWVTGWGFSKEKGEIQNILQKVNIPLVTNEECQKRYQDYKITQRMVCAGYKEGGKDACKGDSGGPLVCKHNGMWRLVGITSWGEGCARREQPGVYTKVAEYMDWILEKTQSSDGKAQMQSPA
human Plasma Kallikrein (KLKB1), sequence (P03952 20-390 partner): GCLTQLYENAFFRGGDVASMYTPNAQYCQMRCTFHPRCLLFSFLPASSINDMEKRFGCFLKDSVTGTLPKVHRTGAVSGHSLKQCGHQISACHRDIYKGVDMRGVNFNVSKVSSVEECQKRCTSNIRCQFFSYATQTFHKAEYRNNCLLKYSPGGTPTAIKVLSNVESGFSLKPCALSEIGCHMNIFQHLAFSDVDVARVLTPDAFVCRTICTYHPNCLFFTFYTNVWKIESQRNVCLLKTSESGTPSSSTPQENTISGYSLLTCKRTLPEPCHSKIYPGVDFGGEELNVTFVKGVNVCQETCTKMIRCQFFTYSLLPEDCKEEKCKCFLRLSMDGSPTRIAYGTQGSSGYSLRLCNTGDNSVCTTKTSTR

Row | SMILES | IC50
1 | Cc1ccc2cc(Cn3cc(C(=O)NC4CCCc5nc(N)ccc54)nn3)ccc2n1 (stereo not shown) [Example 1, 1-(2-Methyl-quinolin-6-ylmethyl)-1H-[1,2,3]triazole-4-carboxylic acid (2-amino-5,6,7,8-tetrahydro-quinolin-5-yl)-amide] | 900 nM
2 | Cc1ccc2cc(Cn3cc(C(=O)NC4CCc5nc(N)ccc54)nn3)ccc2n1 (stereo not shown) [Example 7] | 910 nM
3 | Nc1ccc2c(n1)CCC2NC(=O)c1cn(Cc2ccc(C(F)c3ccon3)cc2)nn1 (stereo not shown) [Example 3] | 5500 nM
4 | CC(C)(O)c1cccn(Cc2ccc(Cn3cc(C(=O)NC4CCc5nc(N)ccc54)nn3)cc2)c1=O (stereo not shown) [Example 9] | 560 nM
5 | Nc1ccc2c(n1)CCC2NC(=O)c1cnn(Cc2ccc(Cn3cccn3)cc2)c1 (stereo not shown) [Example 6] | 32 nM
6 | Cc1cnn(Cc2ccc(Cn3cc(C(=O)N[C@@H]4CCc5nc(N)ccc54)c(C(F)(F)F)n3)cc2)c1 [Example 16] | 18 nM
7 | Nc1cc2c(cn1)C(NC(=O)c1cn(Cc3ccc(Cn4cccn4)cc3)nn1)CC2 (stereo not shown) [Example 4] | 790 nM
8 | C[C@H]1CCN(c2ccc(Cn3cc(C(=O)N[C@@H]4CCc5nc(N)ccc54)c(C(F)(F)F)n3)cn2)C1 [Example 14] | 40 nM
9 | Nc1nccc2c1C(NC(=O)c1cn(Cc3ccc(Cn4cccn4)cc3)nn1)CC2 (stereo not shown) [Example 2, 1-(4-Pyrazol-1-ylmethyl-benzyl)-1H-[1,2,3]triazole-4-carboxylic acid (1-amino-6,7-dihydro-5H-[2]pyrindin-7-yl)-amide] | 600 nM
10 | Cc1cnn(Cc2ccc(Cn3cc(C(=O)N[C@@H]4CCc5c4ccnc5N)c(C(F)(F)F)n3)cc2)c1 [Example 15] | 1 nM

Source: patent publication US10399961B2, “Heteroarylcarboxamide derivatives as plasma kallikrein inhibitors” (Boehringer Ingelheim International GmbH, priority 2015, dated 2019)
